# Data taken from patent publication US20020061888A1, “Combination therapy for the prophylaxis and treatment of hyperlipidemic conditions and disorders” (priority 2000, published 2002).
# Several values for one entry are separate records, joined by “and”; a condition that tells them apart may be missing. Equal entries are not always repeated.
# Columns and labels:
# Male beagle dogs [1] = assay: Serum total cholesterol in beagle dogs (serum lipid measurements); assay type: in vivo; conditions: pravastatin 16.0 mg/kg/day, Week 3, mean ± SEM, n = 6
# Male beagle dogs [2] = assay: as above; assay type: in vivo; conditions: for SERUM TOTAL CHOLESTEROL / TOTAL SERUM CHOLESTEROL: n = 6; for decrease in serum total cholesterol concentration: compared to vehicle; for decrease in serum total cholesterol: after four weeks, vs pretreatment
# Description: Male beagle dogs (9-10 kg) obtained from Marshall farms were fed a normal chow diet once a day for a two hour interval and given water ad libitum. Prior to initiating treatment, the dogs were weighed and blood samples were drawn from the cephalic vein of each dog following an overnight fast to evaluate pretreatment serum total cholesterol levels at the start of the study. […] All doses were administered in gelatin capsules per os to each dog between 9:00-9:30 a.m. prior to feeding. All animals were fed between 9:30-10:00 a.m. and were allowed two hours to eat, at which time any remaining food was removed. […] Animals were dosed daily for three weeks and blood samples were taken at the end of each week after an overnight fast for comparison with pretreatment serum total cholesterol levels. Three consecutive 24 hour fecal samples were collected for each group during the last 72 hours of each week and used to measure the concentration of fecal biles acids excreted during that time period.
# Blood was collected from the cephalic vein of each dog into serum separator tubes. The blood was centrifuged at 900×g for 20 minutes at room temperature and the serum decanted. All analyses were performed on a Cobas Mira Clinical Analyzer System (Roche Diagnostic Systems, Branchburg, N.J.) using Roche Diagnostic reagents for enzymatic determinations of serum cholesterol. Commercial calibrator and quality control materials were analyzed with each run to verify assay accuracy and precision. A two-tailed, paired Students t-test was used to determine the statistical significance of changes in serum total cholesterol in treated dogs compared to pretreatment values. A one-way analysis of variance (“ANOVA”) was used to compare each pair of treatment groups to determine the statistical significance of changes in serum total cholesterol.
# Beagle dogs also were administered pravastatin to evaluate the monotherapeutic effect of pravastatin on serum total cholesterol.
# Male beagle dogs (9-10 kg) obtained from Marshall farms were fed once a day for two hours and given water ad libitum. Prior to initiating treatment, blood samples were drawn from the cephalic vein of each dog to evaluate pretreatment total serum cholesterol levels at the start of the study.
# For the dose ranging study, the dogs were assigned to one of five groups based on mean body weights and serum total cholesterol levels. Each group received one of the following dosages: (1) vehicle (empty capsule, afternoon dosing), (2) 3.0 mg/kg/day pravastatin (afternoon dosing), (3) 10 mg/kg/day pravastatin (afternoon dosing), (4) 30 mg/kg/day pravastatin (afternoon dosing), and (5) 10 mg/kg/day pravastatin (morning dosing). One capsule containing pravastatin was administered per os to each dog between 9:00-9:30 a.m. prior to feeding for the 10 mg/kg/day morning dosing group and between 2:30-3:00 p.m. for the afternoon dosing groups. All animals were fed between 9:30-10:00 a.m. and were allowed two hours to eat, at which time any remaining food was removed. […] Animals were dosed daily for four weeks and blood samples were taken at the end of each week after an overnight fast for comparison with pretreatment serum total cholesterol levels.
# Following this initial four week dose-ranging study, dogs from the two groups receiving 10 mg/kg/day pravastatin (a.m. and p.m. dosing groups) were randomized into two new treatment groups based on serum total cholesterol levels to initiate the combination treatment study. […] Dosing continued in this manner for an additional four weeks (Weeks 5-8) with blood and 48-hour fecal samples collected at the end of each week for serum lipid measurements and fecal bile acid determinations, respectively.
smiles,measurement,setting,value
"CC[C@H](C)C(=O)O[C@H]1C[C@H](O)C=C2C=C[C@H](C)[C@H](CC[C@@H](O)C[C@@H](O)CC(=O)O)[C@H]21 [pravastatin, Pravastatin]",SERUM TOTAL CHOLESTEROL,Male beagle dogs [1],134 ± 13^2 mg/dL
same,% change in serum total cholesterol compared to the pretreatment value of each group,"Male beagle dogs [2]; pravastatin 0.25 mg/kg/day, Week 1",(+2) %
same,SERUM TOTAL CHOLESTEROL,"Male beagle dogs [2]; pravastatin 0.25 mg/kg/day, Week 1, mean ± SEM",157 ± 10 mg/dL
same,% change in serum total cholesterol compared to the pretreatment value of each group,"Male beagle dogs [2]; pravastatin 0.25 mg/kg/day, Week 2",(+3) %
same,SERUM TOTAL CHOLESTEROL,"Male beagle dogs [2]; pravastatin 0.25 mg/kg/day, Week 2, mean ± SEM",159 ± 12 mg/dL
same,% change in serum total cholesterol compared to the pretreatment value of each group,"Male beagle dogs [2]; pravastatin 0.25 mg/kg/day, Week 3",(0) %
same,SERUM TOTAL CHOLESTEROL,"Male beagle dogs [2]; pravastatin 0.25 mg/kg/day, Week 3, mean ± SEM",154 ± 13 mg/dL
same,decrease in serum total cholesterol concentration,"Male beagle dogs [2]; pravastatin 0.25 mg/kg/day, one week of treatment",2%
same,decrease in serum total cholesterol concentration,"Male beagle dogs [2]; pravastatin 0.25 mg/kg/day, three weeks of treatment",0%
same,% change in serum total cholesterol compared to the pretreatment value of each group,"Male beagle dogs [2]; pravastatin 1.0 mg/kg/day, Week 1",(−1) %
same,SERUM TOTAL CHOLESTEROL,"Male beagle dogs [2]; pravastatin 1.0 mg/kg/day, Week 1, mean ± SEM",153 ± 11 mg/dL
same,% change in serum total cholesterol compared to the pretreatment value of each group,"Male beagle dogs [2]; pravastatin 1.0 mg/kg/day, Week 2",(−4) %
same,SERUM TOTAL CHOLESTEROL,"Male beagle dogs [2]; pravastatin 1.0 mg/kg/day, Week 2, mean ± SEM",149 ± 11^2 mg/dL
same,% change in serum total cholesterol compared to the pretreatment value of each group,"Male beagle dogs [2]; pravastatin 1.0 mg/kg/day, Week 3",(−8) %
same,SERUM TOTAL CHOLESTEROL,"Male beagle dogs [2]; pravastatin 1.0 mg/kg/day, Week 3, mean ± SEM",143 ± 10^2 mg/dL
same,decrease in serum total cholesterol concentration,"Male beagle dogs [2]; pravastatin 1.0 mg/kg/day, one week of treatment",1%
same,decrease in serum total cholesterol concentration,"Male beagle dogs [2]; pravastatin 1.0 mg/kg/day, three weeks of treatment",8%
same,% change in serum total cholesterol compared to the pretreatment value of each group,"Male beagle dogs [2]; pravastatin 3.0 mg/kg/day pm dosing, Week 1",(−1) %
same,TOTAL SERUM CHOLESTEROL,"Male beagle dogs [2]; pravastatin 3.0 mg/kg/day pm dosing, Week 1, mean ± SEM",157 ± 16 mg/dL
same,% change in serum total cholesterol compared to the pretreatment value of each group,"Male beagle dogs [2]; pravastatin 3.0 mg/kg/day pm dosing, Week 2",(−16) %
same,TOTAL SERUM CHOLESTEROL,"Male beagle dogs [2]; pravastatin 3.0 mg/kg/day pm dosing, Week 2, mean ± SEM",133 ± 11^3 mg/dL
same,% change in serum total cholesterol compared to the pretreatment value of each group,"Male beagle dogs [2]; pravastatin 3.0 mg/kg/day pm dosing, Week 3",(−11) %
same,TOTAL SERUM CHOLESTEROL,"Male beagle dogs [2]; pravastatin 3.0 mg/kg/day pm dosing, Week 3, mean ± SEM",140 ± 12^3 mg/dL
same,% change in serum total cholesterol compared to the pretreatment value of each group,"Male beagle dogs [2]; pravastatin 3.0 mg/kg/day pm dosing, Week 4",(−16) %
same,TOTAL SERUM CHOLESTEROL,"Male beagle dogs [2]; pravastatin 3.0 mg/kg/day pm dosing, Week 4, mean ± SEM",132 ± 10^3 mg/dL
same,lowering of serum total cholesterol,"Male beagle dogs [2]; pravastatin 3 mg/kg/day, four week dose ranging study",16%
same,% change in serum total cholesterol compared to the pretreatment value of each group,"Male beagle dogs [2]; pravastatin 4.0 mg/kg/day, Week 1",(−6) %
same,SERUM TOTAL CHOLESTEROL,"Male beagle dogs [2]; pravastatin 4.0 mg/kg/day, Week 1, mean ± SEM",148 ± 10^2 mg/dL
same,% change in serum total cholesterol compared to the pretreatment value of each group,"Male beagle dogs [2]; pravastatin 4.0 mg/kg/day, Week 2",(−7) %
same,SERUM TOTAL CHOLESTEROL,"Male beagle dogs [2]; pravastatin 4.0 mg/kg/day, Week 2, mean ± SEM",146 ± 8 mg/dL
same,% change in serum total cholesterol compared to the pretreatment value of each group,"Male beagle dogs [2]; pravastatin 4.0 mg/kg/day, Week 3",(−11) %
same,SERUM TOTAL CHOLESTEROL,"Male beagle dogs [2]; pravastatin 4.0 mg/kg/day, Week 3, mean ± SEM",139 ± 9^2 mg/dL
same,decrease in serum total cholesterol concentration,"Male beagle dogs [2]; pravastatin 4.0 mg/kg/day, one week of treatment",6%
same,decrease in serum total cholesterol concentration,"Male beagle dogs [2]; pravastatin 4.0 mg/kg/day, three weeks of treatment",11%
same,decrease in serum total cholesterol,Male beagle dogs [2]; pravastatin 10 mg/kg/day a.m. dosing,16%
same,% change in serum total cholesterol compared to the pretreatment value of each group,"Male beagle dogs [2]; pravastatin 10.0 mg/kg/day am dosing, Week 1",(+6) %
same,TOTAL SERUM CHOLESTEROL,"Male beagle dogs [2]; pravastatin 10.0 mg/kg/day am dosing, Week 1, mean ± SEM",164 ± 12 mg/dL
same,% change in serum total cholesterol compared to the pretreatment value of each group,"Male beagle dogs [2]; pravastatin 10.0 mg/kg/day am dosing, Week 2",(−13) %
same,TOTAL SERUM CHOLESTEROL,"Male beagle dogs [2]; pravastatin 10.0 mg/kg/day am dosing, Week 2, mean ± SEM",135 ± 15^3 mg/dL
same,% change in serum total cholesterol compared to the pretreatment value of each group,"Male beagle dogs [2]; pravastatin 10.0 mg/kg/day am dosing, Week 3",(−15) %
same,TOTAL SERUM CHOLESTEROL,"Male beagle dogs [2]; pravastatin 10.0 mg/kg/day am dosing, Week 3, mean ± SEM",131 ± 10^3 mg/dL
same,% change in serum total cholesterol compared to the pretreatment value of each group,"Male beagle dogs [2]; pravastatin 10.0 mg/kg/day am dosing, Week 4",(−16) %
same,TOTAL SERUM CHOLESTEROL,"Male beagle dogs [2]; pravastatin 10.0 mg/kg/day am dosing, Week 4, mean ± SEM",130 ±7 mg/dL and 130 ± 7^3 mg/dL
same,decrease in serum total cholesterol,Male beagle dogs [2]; pravastatin 10 mg/kg/day p.m. dosing,21%
same,% change in serum total cholesterol compared to the pretreatment value of each group,"Male beagle dogs [2]; pravastatin 10.0 mg/kg/day pm dosing, Week 1",(−8) %
same,TOTAL SERUM CHOLESTEROL,"Male beagle dogs [2]; pravastatin 10.0 mg/kg/day pm dosing, Week 1, mean ± SEM",146 ± 10 mg/dL
same,% change in serum total cholesterol compared to the pretreatment value of each group,"Male beagle dogs [2]; pravastatin 10.0 mg/kg/day pm dosing, Week 2",(−19) %
same,TOTAL SERUM CHOLESTEROL,"Male beagle dogs [2]; pravastatin 10.0 mg/kg/day pm dosing, Week 2, mean ± SEM",129 ± 10^3 mg/dL
